These results are taken from US11458138B2 (Novartis AG, priority 2017, dated 2022).

The target in one assay is LATS1 (Homo sapiens (Human), UniProt O95835). Put plainly: LATS1 biochemical assay (Table 1A, Compound Examples 1-290; method in the earlier part).
In assay [1] the test system is YAP nuclear translocation in HaCaT cells. Put plainly: YAP Translocation Assay (HaCaT Cells). The class given is cell-based, human. To be noted: Homo sapiens, 24 hours. As for the experimental part:
HaCaT cells were suspended at 0.4×10^6 cells/ml in DMEM+10% FBS with penicillin-streptomycin-glutamine. 50 μl of cells were dispensed into 384-well clear bottom assay plates (20,000 cells/well), and incubated overnight at 37° C. 100 nL test compound was transferred into the assay wells containing HaCaT cells using ECHO (Labcyte). After 24 hours incubation at 37° C., 7 μL of 32% PFA was dispensed into each well and incubated for 45 minutes at room temperature. Plates were washed 3 times with PBS, leaving 20 μL of PBS per well, then treated with 0.1% Triton and 1.5% BSA in PBS for 45 minutes at room temperature. Plates were washed for 5 times with PBS, leaving 20 μL of PBS per well. […] Plates were further washed 3 time with PBS, sealed and imaged on the high-content Opera imaging system (PerkinElmer).

The structures appear in SMILES notation. Bounds are passed on as bounds.

Sequence of LATS1 (O95835 whole entry, looked up): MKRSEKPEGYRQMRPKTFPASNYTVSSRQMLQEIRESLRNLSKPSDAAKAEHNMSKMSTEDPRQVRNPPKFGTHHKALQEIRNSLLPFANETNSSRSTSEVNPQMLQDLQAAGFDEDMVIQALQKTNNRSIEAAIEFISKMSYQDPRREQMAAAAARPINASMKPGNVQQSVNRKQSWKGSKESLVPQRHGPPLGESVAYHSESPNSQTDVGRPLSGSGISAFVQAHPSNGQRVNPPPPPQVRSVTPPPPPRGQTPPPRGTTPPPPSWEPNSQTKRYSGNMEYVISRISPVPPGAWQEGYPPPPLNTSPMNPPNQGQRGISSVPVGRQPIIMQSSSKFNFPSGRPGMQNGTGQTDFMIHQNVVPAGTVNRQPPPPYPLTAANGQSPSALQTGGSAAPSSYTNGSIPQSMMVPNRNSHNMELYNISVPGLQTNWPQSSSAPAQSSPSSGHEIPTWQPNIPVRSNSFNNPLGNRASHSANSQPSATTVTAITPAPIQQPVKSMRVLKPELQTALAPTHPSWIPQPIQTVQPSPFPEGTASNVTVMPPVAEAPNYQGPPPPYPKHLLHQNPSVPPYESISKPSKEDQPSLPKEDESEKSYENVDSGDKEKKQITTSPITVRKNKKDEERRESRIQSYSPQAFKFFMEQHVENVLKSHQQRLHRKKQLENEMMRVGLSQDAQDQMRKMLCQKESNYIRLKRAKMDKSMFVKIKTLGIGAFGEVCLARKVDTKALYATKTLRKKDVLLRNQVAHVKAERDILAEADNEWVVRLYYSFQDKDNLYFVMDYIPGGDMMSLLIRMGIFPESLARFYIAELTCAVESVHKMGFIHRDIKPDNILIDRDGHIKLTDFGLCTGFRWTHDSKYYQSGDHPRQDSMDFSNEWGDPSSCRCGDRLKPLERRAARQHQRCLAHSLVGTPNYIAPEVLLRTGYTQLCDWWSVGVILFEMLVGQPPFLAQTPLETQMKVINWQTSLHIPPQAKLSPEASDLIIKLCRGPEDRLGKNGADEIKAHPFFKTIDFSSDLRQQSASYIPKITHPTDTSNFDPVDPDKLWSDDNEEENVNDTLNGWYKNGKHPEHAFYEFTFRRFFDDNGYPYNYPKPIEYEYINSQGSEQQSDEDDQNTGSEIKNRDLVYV
Sequence of LATS1 (Q7L9L4 whole entry partner, looked up): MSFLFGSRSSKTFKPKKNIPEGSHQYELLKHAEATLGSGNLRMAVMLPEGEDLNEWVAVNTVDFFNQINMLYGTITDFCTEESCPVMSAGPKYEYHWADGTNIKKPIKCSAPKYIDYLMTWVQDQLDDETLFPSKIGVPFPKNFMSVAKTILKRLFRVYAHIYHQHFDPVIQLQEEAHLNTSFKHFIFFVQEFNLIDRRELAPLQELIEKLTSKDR

A word on the IC50: it is the midpoint of a concentration-inhibition curve. A word on the EC50: it is the concentration at which the effect is half-maximal. Lower therefore signals a more potent agent. At LATS1, `CC(C)(COCC(=O)O)Nc1nc(-c2ccncc2)nc2cnccc12` [Example 25, 2-(2-methyl-2-{[2-(pyridin-4-yl)pyrido[3,4-d]pyrimidin-4-yl]amino}propoxy)acetic acid] showed an IC50 of 30 nM. Also, the concentration giving a half-maximal response (EC50) in assay [1] was > 20000 nM.
Taken in the same sequence, the figures for `OCCC(Nc1nc(-c2ccncc2)nc2cnccc12)C(F)(F)F` (stereo not drawn) [Example 27, 4,4,4-trifluoro-3-{[2-(pyridin-4-yl)pyrido[3,4-d]pyrimidin-4-yl]amino}butan-1-ol] were 35 nM and > 14400 nM.
Taken in the same sequence, the figures for `CC(C)(CS(C)(=O)=O)Nc1nc(-c2ccncc2)nc2cnccc12` [Example 28, N-(1-methanesulfonyl-2-methylpropan-2-yl)-2-(pyridin-4-yl)pyrido[3,4-d]pyrimidin-4-amine] were 36 nM and > 20000 nM.
As for `C[C@](Nc1nc(-c2ccncc2)nc2cnccc12)(C(=O)O)C(F)(F)F` [Example 29, (2S)-3,3,3-trifluoro-2-methyl-2-{[2-(pyridin-4-yl)pyrido[3,4-d]pyrimidin-4-yl]amino}propanoic acid], the IC50 at LATS1 amounted to 36 nM. Further, in assay [1], the EC50 was > 20000 nM.
Taken in the same sequence, the figures for `C[C@@](Nc1nc(-c2ccncc2)nc2cnccc12)(C(=O)O)C(F)(F)F` [Example 31, (2R)-3,3,3-trifluoro-2-methyl-2-{[2-(pyridin-4-yl)pyrido[3,4-d]pyrimidin-4-yl]amino}propanoic acid] were 41 nM and > 20000 nM.
Taken in the same sequence, the figures for `CC(C)(Nc1nc(-c2ccncc2)nc2cnccc12)C(=O)O` [Example 34, 2-methyl-2-{[2-(pyridin-4-yl)pyrido[3,4-d]pyrimidin-4-yl]amino}propanoic acid] were 95 nM and > 20000 nM.
Taken in the same sequence, the figures for `OCCOCCNc1nc(-c2ccncc2)nc2cnccc12` [Example 35, 2-(2-{[2-(pyridin-4-yl)pyrido[3,4-d]pyrimidin-4-yl]amino}ethoxy)ethan-1-ol] were 118 nM and > 20000 nM.
Regarding `OCC(CO)(CO)Nc1nc(-c2ccncc2)nc2cnccc12` [Example 36, 2-(hydroxymethyl)-2-{[2-(pyridin-4-yl)pyrido[3,4-d]pyrimidin-4-yl]amino}propane-1,3-diol], at LATS1, the IC50 is 199 nM. Besides, the EC50 in assay [1] was > 20000 nM.
Taken in the same sequence, the figures for `CC(C)(CC(=O)O)NC(=O)CC(C)(C)Nc1nc(-c2ccncc2)nc2cnccc12` [Example 37, 3-methyl-3-(3-methyl-3-{[2-(pyridin-4-yl)pyrido[3,4-d]pyrimidin-4-yl]amino}butanamido) butanoic acid] were 233 nM and > 6670 nM.
Taken in the same sequence, the figures for `CN(C)C1(CNc2nc(-c3ccncc3)nc3cnccc23)CCOCC1` [Example 39, N-{[4-(dimethylamino)oxan-4-yl]methyl}-2-(pyridin-4-yl)pyrido[3,4-d]pyrimidin-4-amine] were 244 nM and > 11600 nM.
Taken in the same sequence, the figures for `CC(C)(Nc1nc(-c2ccncc2)nc2cnccc12)C12CC3CC(CC(C3)C1)C2` [Example 42, N-[2-(adamantan-1-yl)propan-2-yl]-2-(pyridin-4-yl)pyrido[3,4-d]pyrimidin-4-amine] were 711 nM and 11600 nM.
As for `CC(C)C(=O)Nc1nc(-c2ccncc2)nc2cnccc12` [Example 43, 2-methyl-N-[2-(pyridin-4-yl)pyrido[3,4-d]pyrimidin-4-yl]propanamide], on LATS1, the half-inhibitory concentration (IC50) was > 1970 nM. For the same compound, the EC50 in assay [1] is > 20000 nM.
Taken in the same sequence, the figures for `CC(C)S(=O)(=O)Nc1nc(-c2ccncc2)nc2cnccc12` [Example 45, N-[2-(pyridin-4-yl)pyrido[3,4-d]pyrimidin-4-yl]propane-2-sulfonamide] were > 2500 nM and > 20000 nM.
In turn, `CN[C@@H]1CCCC[C@H]1N(C)c1nc(-c2ccncc2)nc2cnccc12` [Example 53, (1R,2R)-1-N,2-N-dimethyl-1-N-[2-(pyridin-4-yl)pyrido[3,4-d]pyrimidin-4-yl]cyclohexane-1,2-diamine] registered an IC50 on LATS1 of 40 nM. Moreover, the half-maximal effective concentration (EC50) in assay [1] was > 20000 nM.
Taken in the same sequence, the figures for `COC(=O)[C@H]1C[C@@H](Nc2nc(-c3ccncc3)nc3cnccc23)C1` [Example 54, methyl (1s,3s)-3-{[2-(pyridin-4-yl)pyrido[3,4-d]pyrimidin-4-yl]amino}cyclobutane-1-carboxylate] were 78 nM and > 20000 nM.
Taken in the same sequence, the figures for `O=C(O)C1CC(Nc2nc(-c3ccncc3)nc3cnccc23)C1` (stereo not drawn) [Example 57, (1s,3s)-3-{[2-(pyridin-4-yl)pyrido[3,4-d]pyrimidin-4-yl]amino}cyclobutane-1-carboxylic acid] were 1440 nM and > 20000 nM.
Taken in the same sequence, the figures for `CC1(Nc2nc(-c3ccncc3)nc3cnccc23)CCC1` [Example 60, N-(1-methylcyclobutyl)-2-(pyridin-4-yl)pyrido[3,4-d]pyrimidin-4-amine] were 1 nM and 440 nM.
The compound `CC(CO)(Nc1nc(-c2ccncc2)nc2cnccc12)C(F)(F)F` (stereo not drawn) [Example 67, 3,3,3-trifluoro-2-methyl-2-{[2-(pyridin-4-yl)pyrido[3,4-d]pyrimidin-4-yl]amino}propan-1-ol] gave an IC50 against LATS1 of 2 nM. The EC50 in assay [1] was 685 nM.
Taken in the same sequence, the figures for `Cc1ccc(Nc2nc(-c3ccncc3)nc3cnccc23)cc1` [Example 90, N-(4-methylphenyl)-2-(pyridin-4-yl)pyrido[3,4-d]pyrimidin-4-amine] were 126 nM and > 20000 nM.
Taken in the same sequence, the figures for `c1ccc(Nc2nc(-c3ccncc3)nc3cnccc23)cc1` [Example 92, N-phenyl-2-(pyridin-4-yl)pyrido[3,4-d]pyrimidin-4-amine] were 304 nM and > 20000 nM.
Taken in the same sequence, the figures for `Cc1cccc(Nc2nc(-c3ccncc3)nc3cnccc23)c1` [Example 93, N-(3-methylphenyl)-2-(pyridin-4-yl)pyrido[3,4-d]pyrimidin-4-amine] were 809 nM and > 20000 nM.
On LATS1, `O=C(O)CCCCCNc1nc(-c2ccncc2)nc2cnccc12` [Example 94, 6-{[2-(pyridin-4-yl)pyrido[3,4-d]pyrimidin-4-yl]amino}hexanoic acid] yielded a half-maximal inhibitory concentration (IC50) of 1150 nM. Besides, in assay [1], the EC50 is > 20000 nM.
As to `Fc1ccc(Nc2nc(-c3ccncc3)nc3cnccc23)cc1` [Example 96, N-(4-fluorophenyl)-2-(pyridin-4-yl)pyrido[3,4-d]pyrimidin-4-amine], the IC50 against LATS1 is > 1700 nM. Also, in assay [1], the concentration for a half-maximal effect (EC50) was > 20000 nM.
In the case of `O=C(O)CCCNc1nc(-c2ccncc2)nc2cnccc12` [Example 97, 4-{[2-(pyridin-4-yl)pyrido[3,4-d]pyrimidin-4-yl]amino}butanoic acid], the half-maximal effective concentration (EC50) in assay [1] was > 20000 nM.
With `CC(Nc1nc(-c2ccncc2)nc2cnccc12)c1ccccc1` (stereo not drawn) [Example 98, N-(1-phenylethyl)-2-(pyridin-4-yl)pyrido[3,4-d]pyrimidin-4-amine], the 50% inhibitory concentration (IC50) at LATS1 amounted to 1350 nM.
For `COC(=O)CC1(Nc2nc(-c3ccncc3)nc3cnccc23)CC1` [Example 102, methyl 2-(1-{[2-(pyridin-4-yl)pyrido[3,4-d]pyrimidin-4-yl]amino}cyclopropyl)acetate], inhibition against LATS1 was half-maximal at 126 nM (IC50).
Regarding `Cc1c(-c2nc(NC(C)(C)C)c3ccncc3n2)c2cccnc2n1S(=O)(=O)c1ccccc1` [Example 113, 2-[1-(benzenesulfonyl)-2-methyl-1H-pyrrolo[2,3-b]pyridin-3-yl]-N-tert-butylpyrido[3,4-d]pyrimidin-4-amine], on LATS1, the IC50 came to 235 nM. For the same compound, in assay [1], the EC50 was > 20000 nM.
Taken in the same sequence, the figures for `CC(C)(O)CC(C)(C)Nc1nc(-c2c[nH]nc2C(F)(F)F)nc2cnccc12` [Example 119, 2,4-dimethyl-4-({2-[3-(trifluoromethyl)-1H-pyrazol-4-yl]pyrido[3,4-d]pyrimidin-4-yl}amino)pentan-2-ol] were 9 nM and 5180 nM.
In turn, `CC1(Nc2nc(-c3ccnc(C(F)(F)F)c3)nc3cnccc23)CC1` [Example 150, N-(1-methylcyclopropyl)-2-[2-(trifluoromethyl)pyridin-4-yl]pyrido[3,4-d]pyrimidin-4-amine] had an IC50 at LATS1 of 4270 nM.
Same read-out and setting: the value for `CC1(Nc2nc(-c3ccnc(C#N)c3)nc3cnccc23)CC1` [Example 151, 4-{4-[(1-methylcyclopropyl)amino]pyrido[3,4-d]pyrimidin-2-yl}pyridine-2-carbonitrile] was > 10000 nM.
On the same count and under the same terms, the value for `CN(c1nc(-c2ccnn2C)nc2cnccc12)C1(C)CC1` [Example 169, N-methyl-2-(1-methyl-1H-pyrazol-5-yl)-N-(1-methylcyclopropyl)pyrido[3,4-d]pyrimidin-4-amine] was 98 nM; that for `OCC1(Nc2nc(-c3cn[nH]c3)nc3cnccc23)CCC1` [Example 191, (1-{[2-(1H-pyrazol-4-yl)pyrido[3,4-d]pyrimidin-4-yl]amino}cyclobutyl)methanol] was 189 nM.
Same read-out and setting: the value for `CC(Nc1nc(-c2ccnn2C)nc2cnccc12)c1ccncc1` (stereo not drawn) [Example 193, 2-(1-methyl-1H-pyrazol-5-yl)-N-[1-(pyridin-4-yl)ethyl]pyrido[3,4-d]pyrimidin-4-amine] was > 10000 nM; that for `CCn1cc(-c2nc(NCC(C)C)c3ccncc3n2)cn1` [Example 195, 2-(1-ethyl-1H-pyrazol-4-yl)-N-(2-methylpropyl)pyrido[3,4-d]pyrimidin-4-amine] was > 10000 nM.
The compound `CC(C)(CN)Nc1nc(-c2cn[nH]c2)nc2cnccc12` [Example 197, N-(1-amino-2-methylpropan-2-yl)-2-(1H-pyrazol-4-yl)pyrido[3,4-d]pyrimidin-4-amine] showed an IC50 against LATS1 of 23 nM.
